From US10188639B2, “Methods of treating neurological, metabolic, and other disorders using enantiopure deuterium-enriched pioglitazone” (DeuteRx, LLC, priority 2014, dated 2019)
Like-named read-outs stand apart in the source and are kept apart here.

Key:
[1] = Body weight gain in male C57BL/6J mice on a standard diet; format: in vivo, mouse; details: twice daily oral gavage for 11 days; overall daily dose h-rac-pio 30 mg/kg, d-S-pio 15 mg/kg, d-R-pio 15 mg/kg; vs. vehicle
Experimental: Male C57BL/6J mice (about 28 g body weight) were acclimated singly-housed for one week to a reverse light/dark cycle with free access to water and standard maintenance diet. Animals were then handled daily for one week followed by another 7 days of twice daily dosing with vehicle (0.5% methylcellulose in water) by oral gavage. […] Body weights were measured twice daily, prior to each dosing, to adjust individual dosing volumes to actual body weights.

[2] = Pharmacokinetics in male C57BL/6 mice after oral gavage for 5 days; details: day 5, oral gavage daily; for t1/2 (h) d-S: elimination half-life of d-S-pio; for t1/2 (h) h-R: elimination half-life of h-R-pio; for t1/2 (h) h-R / t1/2 (h) h-S: h-rac-pio 30 mg/kg, d-S-pio and d-R-pio 15 mg/kg; for t1/2 (h) h-S: elimination half-life of h-S-pio
Experimental: (§1) Animals were then euthanized. Plasma was separated by centrifugation and stored at −80° C. until analyzed.
(§2) Concentrations were calculated by interpolation on standard curves generated from mouse plasma samples spiked with known concentrations of the pure analytes.

db/db mice = assay: db/db mouse model of type II diabetes, 10-day daily oral dosing; format: in vivo; details: for non-essential fatty acids: 20 mg/kg daily oral gavage, 10 days, compared with h-rac-pio 30 mg/kg; for adiponectin: d-S-pio 20 mg/kg; for decrease of IL-1β / decrease of IL-6 / decrease of TNF-α: d-R-pio 20 mg/kg
Experimental: Body weights were measured throughout the study. Non-fasting blood glucose (10 μL by tail snip) was measured 4 hours prior to first dose, and animals were sorted and assigned to groups based on this measure. […] A terminal blood sample was collected for determination of serum levels of cholesterol, triglycerides, free fatty acids, adiponectin, serum amyloid A, and cytokines IL-1β, IL-6, TNF-α, and MCP-1, using standard analytical methods. Quantitative results were analyzed by statistical methods using, as appropriate, one- or two-way ANOVA or Kruskal-Wallis tests for differences followed by Sidak's, Dunnett's, or Dunn's post-test to determine differences vs. vehicle-treated control animals. All graphs were generated with GraphPad Prism version 6.0.2 (GraphPad Software, Inc., La Jolla, Calif.).

[3] = plasma
Experimental: The plasma samples were incubated at 37° C. in duplicate (anticoagulant: K3EDTA). […] Samples were placed at −80° C. until the study was complete. […] The vortexed samples were centrifuged and 50 μL of supernatant was dispensed in a 96-well plate.
The deuterium in both enantiomers, d-S and d-R, can be lost by D/H exchange to give both protonated enantiomers, h-S and h-R with rate constants kDRR, kDRS, kDSR, and kDSS. At the same time, the protonated enantiomers h-S and h-R can exchange with enantiomerization rate constants kRS and kSR. All four compounds can also degrade with potentially different degradation rate constants kdSd, kdRd, khSd, and khRd.
Human and mouse plasma data were analyzed independently. […] Data in each species was analyzed using a stepwise approach.
The step between calculated time points was minimized in order to minimize the local error (proportional to the square of the step size) and the global error (proportional to the step size).

[4] = molecular target: human recombinant monoamine oxidase B (Homo sapiens (Human), UniProt P27338); assay: Monoamine oxidase B (MAO-B) inhibition, luminescence assay; format: biochemical
Sequence of human recombinant monoamine oxidase B (P27338 whole entry): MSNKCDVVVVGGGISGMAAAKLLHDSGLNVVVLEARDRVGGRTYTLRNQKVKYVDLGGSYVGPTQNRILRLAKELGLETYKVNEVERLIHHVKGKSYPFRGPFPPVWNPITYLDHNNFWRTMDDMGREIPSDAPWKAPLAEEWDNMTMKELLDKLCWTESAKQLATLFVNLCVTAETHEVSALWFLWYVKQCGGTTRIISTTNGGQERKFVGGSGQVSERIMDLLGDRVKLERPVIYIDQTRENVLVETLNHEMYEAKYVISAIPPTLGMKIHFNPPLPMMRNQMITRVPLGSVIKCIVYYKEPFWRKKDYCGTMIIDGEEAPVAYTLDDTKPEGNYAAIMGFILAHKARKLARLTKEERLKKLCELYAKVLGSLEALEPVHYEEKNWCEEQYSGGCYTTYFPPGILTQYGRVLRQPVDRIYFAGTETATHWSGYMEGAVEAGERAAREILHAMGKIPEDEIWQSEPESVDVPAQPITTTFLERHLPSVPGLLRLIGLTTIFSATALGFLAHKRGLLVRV
Experimental: The mixtures were incubated at 22° C. for 5 min. Substrate (D-luciferin derivative) was added, and then the mixture was incubated at 37° C. for 60 min. The reaction was stopped by addition of the detection reagent containing luciferase. Luminescence was read after standing for 60 min at room temperature.
Results were expressed as a percentage of the luminescence of the control (enzyme+substrate). IC50 values were obtained by fitting experimental data (mean % luminescence as function of concentration) to the Hill equation with variable slope using non-linear regression analysis.

[5] = mouse, in vivo, po, 15 mg/kg
Experimental: as §1, §2

[6] = 10 days daily oral, h-rac-pio 30 mg/kg, vs. vehicle

Structure (SMILES)	percent body weight difference versus day 1 body weight [1]	t1/2 (h) d-S ([2]; 15 mg/kg)	t1/2 (h) h-R [2]	t1/2 (h) h-S [2]	non-essential fatty acids (db/db mice)	adiponectin (db/db mice; [6])	t1/2 of h-R-pio, ln(2)/kRS ([3]; human)	t1/2 of h-S-pio, ln(2)/kSR ([3]; human)	t1/2 of h-R-pio, ln(2)/kRS ([3]; mouse)	t1/2 of h-S-pio, ln(2)/kSR ([3]; mouse)	AUC0-inf (ng · h/mL) d-R ([2]; plasma d-R-pio, 15 mg/kg)	Cmax (ng/mL) d-R ([2]; plasma d-R-pio, 15 mg/kg)	difference in inhibition efficacy between d-R-pio and d-S-pio [4]	decrease of IL-1β (db/db mice; [6])	decrease of IL-6 (db/db mice; [6])	decrease of TNF-α (db/db mice; [6])	tmax (h) d-R [5]	insulin (db/db mice; [6])
[2H][C@@]1(Cc2ccc(OCCc3ccc(CC)cn3)cc2)SC(=O)NC1=O [d-S-pio, (S)-5-({p-[2-(5-Ethyl-2-pyridyl)ethoxy]phenyl}methyl)-(5-^2H)-1,3-thiazolidine-2,4-dione]	statistically significant increase	2.3 h	3.2 h	3.1 h	a similar trend was observed	significantly increased	–	–	–	–	–	–	–	–	–	–	–	–
[2H]C1(Cc2ccc(OCCc3ccc(CC)cn3)cc2)SC(=O)NC1=O (racemic) [d-rac-pio, rac-5-({p-[2-(5-Ethyl-2-pyridyl)ethoxy]phenyl}methyl)-(5-^2H)-1,3-thiazolidine-2,4-dione]	–	–	–	–	–	–	1.6 h	1.6 h	0.9 h	0.75 h	–	–	–	–	–	–	–	–
[2H][C@]1(Cc2ccc(OCCc3ccc(CC)cn3)cc2)SC(=O)NC1=O [d-R-pio, (R)-5-({p-[2-(5-Ethyl-2-pyridyl)ethoxy]phenyl}methyl)-(5-^2H)-1,3-thiazolidine-2,4-dione]	did not increase percent body weight difference over vehicle	0.8 h	2.5 h	2.5 h	a similar trend was observed	–	–	–	–	–	18892 ng·h/mL	6360 ng/mL	greater than 5 fold	trending	trending	trending	1 h	–
CCc1ccc(CCOc2ccc(CC3SC(=O)NC3=O)cc2)nc1 (racemic) [h-rac-pio, rac-5-({p-[2-(5-Ethyl-2-pyridyl)ethoxy]phenyl}methyl)-1,3-thiazolidine-2,4-dione, reference compound]	statistically significant increase	–	–	–	–	significantly increased	–	–	–	–	–	–	–	trending	trending	trending	–	significantly decreased
